Results: ChEMBL document CHEMBL1131601, “4-Amino-2-[4-[1-(benzyloxycarbonyl)-2(S)- [[(1,1-dimethylethyl)amino]carbonyl]-piperazinyl]-6, 7-dimethoxyquinazoline (L-765,314): a potent and selective alpha1b adrenergic receptor antagonist” (J Med Chem, 1998)

Tests used:
[1] = molecular target: T1, Alpha-1A adrenergic receptor (Homo sapiens, UniProt P35348); test: Compound was tested for binding affinity utilizing cloned receptor binding assays by using [125 I]HEAT as radioligand to the human Alpha-1A adrenergic receptor
T1 sequence (P35348 whole entry): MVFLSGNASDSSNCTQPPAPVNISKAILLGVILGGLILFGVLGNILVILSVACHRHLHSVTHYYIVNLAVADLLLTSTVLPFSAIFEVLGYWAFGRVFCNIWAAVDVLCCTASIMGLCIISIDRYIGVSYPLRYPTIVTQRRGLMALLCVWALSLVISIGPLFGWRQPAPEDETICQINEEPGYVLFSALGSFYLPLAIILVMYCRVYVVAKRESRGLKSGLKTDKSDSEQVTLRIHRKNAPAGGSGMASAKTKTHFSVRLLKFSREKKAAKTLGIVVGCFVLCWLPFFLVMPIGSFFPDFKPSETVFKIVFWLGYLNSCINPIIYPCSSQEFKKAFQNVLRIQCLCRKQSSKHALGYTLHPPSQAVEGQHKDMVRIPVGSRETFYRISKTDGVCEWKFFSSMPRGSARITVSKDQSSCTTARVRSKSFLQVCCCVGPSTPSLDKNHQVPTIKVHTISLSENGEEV

[2] = molecular target: T1, Alpha-1A adrenergic receptor; test: Compound was tested for the tissue binding affinity using [3H]- Prazosin as radioligand to the human prostate Alpha-1A adrenergic receptor subtype.
[3] = molecular target: T2, Alpha-1B adrenergic receptor (Rattus norvegicus, UniProt P15823); test: Compound was tested for the tissue binding affinity using [3H]- Prazosin as radioligand to the rat spleen Alpha-1B adrenergic receptor subtype.; type: tissue-based
T2 sequence (P15823 whole entry): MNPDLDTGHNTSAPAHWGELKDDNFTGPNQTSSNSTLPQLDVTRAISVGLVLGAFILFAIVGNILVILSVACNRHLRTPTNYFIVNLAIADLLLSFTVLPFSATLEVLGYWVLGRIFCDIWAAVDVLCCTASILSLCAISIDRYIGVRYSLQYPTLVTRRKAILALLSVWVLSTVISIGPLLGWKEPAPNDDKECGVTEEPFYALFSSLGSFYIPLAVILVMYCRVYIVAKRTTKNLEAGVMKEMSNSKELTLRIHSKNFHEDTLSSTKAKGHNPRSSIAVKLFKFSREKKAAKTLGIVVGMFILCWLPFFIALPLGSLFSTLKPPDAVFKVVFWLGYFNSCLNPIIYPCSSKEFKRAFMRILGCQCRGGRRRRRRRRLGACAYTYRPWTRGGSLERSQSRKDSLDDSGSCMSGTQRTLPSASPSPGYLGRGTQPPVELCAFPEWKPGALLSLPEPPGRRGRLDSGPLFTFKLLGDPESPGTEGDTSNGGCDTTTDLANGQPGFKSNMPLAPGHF

[4] = molecular target: T3, Alpha-1A adrenergic receptor (Rattus norvegicus, UniProt P43140); test: Compound was evaluated for its ability to displace [125I]HEAT binding from rat Alpha-1A adrenergic receptor
T3 sequence (P43140 whole entry): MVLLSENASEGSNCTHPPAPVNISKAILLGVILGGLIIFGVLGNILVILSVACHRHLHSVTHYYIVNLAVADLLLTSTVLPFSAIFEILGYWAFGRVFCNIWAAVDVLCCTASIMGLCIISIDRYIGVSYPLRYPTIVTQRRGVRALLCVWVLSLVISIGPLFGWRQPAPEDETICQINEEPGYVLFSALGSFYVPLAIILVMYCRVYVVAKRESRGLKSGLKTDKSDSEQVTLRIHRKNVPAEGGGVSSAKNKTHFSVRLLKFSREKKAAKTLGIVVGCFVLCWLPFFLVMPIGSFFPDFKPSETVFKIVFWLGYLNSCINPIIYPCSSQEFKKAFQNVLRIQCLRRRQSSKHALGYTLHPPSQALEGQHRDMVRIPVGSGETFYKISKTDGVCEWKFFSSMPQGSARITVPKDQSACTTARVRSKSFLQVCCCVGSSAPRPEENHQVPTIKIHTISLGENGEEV

[5] = molecular target: T2, Alpha-1B adrenergic receptor; test: Compound was tested for the tissue binding affinity using [3H]- Prazosin as radioligand to the rat liver Alpha-1B adrenergic receptor
[6] = molecular target: T4, Alpha-1B adrenergic receptor (Homo sapiens, UniProt P35368); test: Compound was tested for binding affinity utilizing cloned receptor binding assays by using [125 I]HEAT as radioligand to the human Alpha-1B adrenergic receptor
T4 sequence (P35368 whole entry): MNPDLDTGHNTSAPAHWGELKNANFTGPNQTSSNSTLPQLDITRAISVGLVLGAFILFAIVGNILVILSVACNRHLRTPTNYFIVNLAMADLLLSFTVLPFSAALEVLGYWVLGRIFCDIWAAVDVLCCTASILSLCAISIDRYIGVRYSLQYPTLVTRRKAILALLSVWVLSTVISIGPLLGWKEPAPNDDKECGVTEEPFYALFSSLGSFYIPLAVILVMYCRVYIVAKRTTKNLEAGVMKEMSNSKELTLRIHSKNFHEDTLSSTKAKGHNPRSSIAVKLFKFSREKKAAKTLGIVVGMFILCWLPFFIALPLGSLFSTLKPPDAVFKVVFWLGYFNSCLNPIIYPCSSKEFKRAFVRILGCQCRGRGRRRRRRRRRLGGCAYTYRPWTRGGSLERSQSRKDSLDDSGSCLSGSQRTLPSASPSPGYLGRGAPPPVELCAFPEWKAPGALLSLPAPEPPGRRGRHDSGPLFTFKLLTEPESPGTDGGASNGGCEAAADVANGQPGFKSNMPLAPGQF

[7] = molecular target: T2, Alpha-1B adrenergic receptor; test: Compound was evaluated for its ability to displace [125I]HEAT binding from rat Alpha-1B adrenergic receptor
[8] = molecular target: T5, Alpha-1D adrenergic receptor (Rattus norvegicus, UniProt P23944); test: Compound was evaluated for its ability to displace [125I]HEAT binding from rat Alpha-1D adrenergic receptor
T5 sequence (P23944 whole entry): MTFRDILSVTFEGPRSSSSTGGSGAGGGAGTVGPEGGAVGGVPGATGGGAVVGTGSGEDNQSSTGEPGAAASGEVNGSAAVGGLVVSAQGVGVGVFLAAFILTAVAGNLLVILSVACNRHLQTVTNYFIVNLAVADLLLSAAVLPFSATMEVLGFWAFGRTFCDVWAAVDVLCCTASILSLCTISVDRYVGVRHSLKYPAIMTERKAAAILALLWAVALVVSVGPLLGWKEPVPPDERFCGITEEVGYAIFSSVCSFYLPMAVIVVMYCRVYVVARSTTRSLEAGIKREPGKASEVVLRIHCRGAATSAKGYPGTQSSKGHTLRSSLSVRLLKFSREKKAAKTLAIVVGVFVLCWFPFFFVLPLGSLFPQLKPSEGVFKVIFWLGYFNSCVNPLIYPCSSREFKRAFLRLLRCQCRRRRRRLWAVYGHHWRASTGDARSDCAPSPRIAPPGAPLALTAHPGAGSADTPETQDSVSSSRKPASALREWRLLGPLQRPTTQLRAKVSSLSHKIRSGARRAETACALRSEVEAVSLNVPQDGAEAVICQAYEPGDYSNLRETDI

[9] = molecular target: T6, Alpha-1D adrenergic receptor (Homo sapiens, UniProt P25100); test: Compound was tested for binding affinity utilizing cloned receptor binding assays by using [125 I]HEAT as radioligand to the human Alpha-1D adrenergic receptor
T6 sequence (P25100 whole entry): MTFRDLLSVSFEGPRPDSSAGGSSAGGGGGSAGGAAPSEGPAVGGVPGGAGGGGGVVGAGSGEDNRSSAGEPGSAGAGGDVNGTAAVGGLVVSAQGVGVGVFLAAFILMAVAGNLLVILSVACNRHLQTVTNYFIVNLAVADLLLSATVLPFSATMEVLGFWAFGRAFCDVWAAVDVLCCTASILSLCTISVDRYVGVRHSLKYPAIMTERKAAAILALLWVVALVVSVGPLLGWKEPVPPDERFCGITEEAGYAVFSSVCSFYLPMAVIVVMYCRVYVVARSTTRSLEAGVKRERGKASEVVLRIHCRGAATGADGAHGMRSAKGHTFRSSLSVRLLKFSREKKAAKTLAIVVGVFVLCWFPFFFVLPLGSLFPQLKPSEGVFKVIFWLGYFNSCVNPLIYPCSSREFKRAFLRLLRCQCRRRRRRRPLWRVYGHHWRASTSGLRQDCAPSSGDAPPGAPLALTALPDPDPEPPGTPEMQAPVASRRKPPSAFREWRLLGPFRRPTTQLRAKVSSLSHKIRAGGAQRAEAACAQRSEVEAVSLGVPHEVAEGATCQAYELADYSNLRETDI

[10] = molecular target: T4, Alpha-1B adrenergic receptor; test: Compound was tested for the tissue binding affinity using [125I]- HEAT as radioligand to the human aorta Alpha-1B adrenergic receptor subtype.; type: tissue-based
[11] = molecular target: T1, Alpha-1A adrenergic receptor; test: Compound was tested for the tissue binding affinity using [3H]- Prazosin as radioligand to the human prostate Alpha-1A adrenergic receptor subtype
[12] = molecular target: T3, Alpha-1A adrenergic receptor; test: Compound was tested for the tissue binding affinity using [3H]- Prazosin as radioligand to the rat prostate Alpha-1A adrenergic receptor subtype
[13] = molecular target: T2, Alpha-1B adrenergic receptor; test: Compound was tested for the tissue binding affinity using [3H]- Prazosin as radioligand to the rat spleen Alpha-1B adrenergic receptor subtype; type: tissue-based
[14] = molecular target: T4, Alpha-1B adrenergic receptor; test: Compound was tested for its binding affinity utilizing cloned receptor binding assays by using [125 I]HEAT as radioligand to the human Alpha-1B adrenergic receptor (n >= 2)
[15] = molecular target: T1, Alpha-1A adrenergic receptor; test: Compound was tested for its binding affinity utilizing cloned receptor binding assays by using [125 I]HEAT as radioligand to the human Alpha-1A adrenergic receptor
[16] = molecular target: T6, Alpha-1D adrenergic receptor; test: Compound was tested for its binding affinity utilizing cloned receptor binding assays by using [125 I]HEAT as radioligand to the human Alpha-1D adrenergic receptor
[17] = molecular target: T3, Alpha-1A adrenergic receptor; test: Compound was tested for the tissue binding affinity using [3H]- Prazosin as radioligand to the rat prostate Alpha-1A adrenergic receptor subtype.
[18] = molecular target: T4, Alpha-1B adrenergic receptor; test: Compound was tested for its binding affinity utilizing cloned receptor binding assays by using [125 I]HEAT as radioligand to the human Alpha-1B adrenergic receptor
[19] = molecular target: T4, Alpha-1B adrenergic receptor; test: Compound was tested for the tissue binding affinity using [125I]- HEAT as radioligand to the human aorta Alpha-1B adrenergic receptor; type: tissue-based

| SMILES | Ki [1] | IC50 [2] | IC50 [3] | Ki [4] | IC50 [5] | Ki [6] | Ki [7] | Ki [8] | Ki [9] | IC50 [10] | IC50 [11] | IC50 [12] | IC50 [13] | Ki [14] | Ki [15] | Ki [16] | IC50 [17] | Ki [18] | IC50 [19] |
| --- | --- | --- | --- | --- | --- | --- | --- | --- | --- | --- | --- | --- | --- | --- | --- | --- | --- | --- | --- |
| COc1cc2nc(N3CCN[C@H](C(=O)NC(C)(C)C)C3)nc(N)c2cc1OC | 830 nM | 1700 nM | 1500 nM | 510 nM | 2700 nM | 25 nM | 1500 nM | 630 nM | 250 nM | 31 nM | – | – | – | – | – | – | – | – | – |
| COc1cc2nc(N3CCN(C(=O)c4ccco4)[C@H](C(=O)NC(C)(C)C)C3)nc(N)c2cc1OC | 1700 nM | – | – | 580 nM | 15 nM | 3.5 nM | 7 nM | 78 nM | 73 nM | – | 1900 nM | 2000 nM | 14 nM | – | – | – | – | – | – |
| COc1cc2nc(N3CCN(C(=O)OCc4ccccc4)[C@H](C(=O)NC(C)(C)C)C3)nc(N)c2cc1OC [L-765314] | – | – | 9.3 nM | 500 nM | 9.3 nM | – | 5.4 nM | 50 nM | – | 8.8 nM | 590 nM | – | – | – | 420 nM | 34 nM | 340 nM | 2 nM | 5800 nM |

More lines, now with the values ahead:

| Ki [1] | IC50 [2] | IC50 [3] | Ki [4] | IC50 [5] | Ki [6] | Ki [7] | Ki [8] | Ki [9] | IC50 [10] | IC50 [11] | IC50 [12] | IC50 [13] | Ki [14] | Ki [15] | Ki [16] | IC50 [17] | Ki [18] | IC50 [19] | SMILES |
| --- | --- | --- | --- | --- | --- | --- | --- | --- | --- | --- | --- | --- | --- | --- | --- | --- | --- | --- | --- |
| – | – | – | – | – | – | 328 nM | – | – | – | – | – | – | 191 nM | – | – | – | – | – | COc1ccccc1N1CCN(CCN2C(=O)CC3(CCCC3)CC2=O)CC1 [BMY-7378] |
| – | – | – | – | – | – | 1.9 nM | 3.4 nM | – | – | – | – | – | – | – | 2 nM | – | – | – | COc1cc2nc(N3CCN(C(=O)C4CCCO4)CC3)nc(N)c2cc1OC (configuration not stated) [TERAZOSIN] |
